Tests used:
[1] = tested on: CD8+ T cells in tumors; assay: infiltration of cytotoxic CD8+ T-cells in treated tumors; type: in vivo; conditions: FIG. 2B
[2] = tested on: 4T1 cells; assay: immune memory study: re-implantation of 4T1 cells; type: in vivo, Balb/c mice
Procedure: 4T1 cells were subcutaneously implanted in Balb/c mice to generate tumors. When tumors reached an average volume of 100 mm^3, they were treated with Compound 1. Two groups of Balb/c mice (non-tumor bearing) were either treated with Compound 1 or saline (designated Group 1 and 2 respectively; FIG. 3A).
Immune memory cells are poised to rapidly expand and induce effector functions upon recurrence, while existing in a functionally quiescent state. In order to check this hypothesis, we examined immune memory in Compound 1 treated tumors. […] The results also rule out the effect of any residual drug inducing tumor memory in non-tumor bearing animals.

[3] = tested on: 4T1 tumors; assay: tumor regression in immunocompetent versus immune-deficient mice strains; type: in vivo, mice (Balb/c, Jh−/−, SCID); conditions: FIG. 4
Description: To understand the role of immune components in tumor regression following treatment with Compound 1, tumor regression was studied in three different mice strains. These included immunocompetent mice (Balb/c); B cell-deficient mice (designated Jh^−/−) and mice lacking functional B cells and T cells (SCID). 4T1 cells were subcutaneously implanted in the three strains mentioned and when tumors reached an average volume of 100 mm^3, they were divided into two groups. One group was kept as control and the other treated with Compound 1 and the tumor volume in all the animals were recorded.

[4] = tested on: splenic B cells; assay: splenic B cells cultured with treatment conditioned media (TCM) from treated 4T1 cells, relative mRNA expression; type: cell-based, mice
Procedure: 4T1 cells were seeded in cell culture dishes in RPMI-1640 media containing 10% FBS. The cells were treated with Oxaliplatin and Compound 1 when they reached 60% confluence. Following a transient treatment of 6 hours, the media was removed and supplemented with fresh culture media. Cells were incubated at 37° C. for 24 hours. After 24 hours, the treatment conditioned media (TCM) was collected from each treatment and divided into two parts. One part was passed through 0.1 micron PES filters to obtain tumor conditioned media free of cell debris, with nucleic acids intact; while the other was passed through 0.1 micron Nylon membrane filters, where the nucleic acids would stick and get removed. The filtration process through Nylon membrane was repeated twice to remove all nucleic acids from the TCM. The harvested TCMs were used immediately for conditioning of B cells, isolated from naïve mice splenocytes using the EasySep Stem Cell B cell isolation kit as per manufacturers protocol. The B cells were incubated with conditioned media and harvested after 24 hours of incubation. RNA was isolated from the B cells and used for relative mRNA expression level evaluation of genes involved in B cell differentiation and TLR activation.

[5] = tested on: 4T1 tumors; assay: relative mRNA expression (qRT-PCR) of immune genes in harvested 4T1 tumors; type: in vivo; conditions: 4T1 tumors in Balb/c mice, one cycle of treatment, FIG. 1A
Procedure: 4T1 cells were subcutaneously implanted in Balb/c mice to generate tumors. When tumors reached an average volume of 100 mm^3, they were treated with either Compound 1 or Oxaliplatin. After one cycle of treatment, following regression, tumors were harvested and a portion of the tumor from each group was used for total RNA isolation. The tumor infiltrating immune cells were evaluated for relative mRNA expression levels of immune activating and immune suppressive genes (Denkert et al., Clin Oncol. 2015; 33(9):983-91).

[6] = tested on: T cell receptor (TCR); assay: activation of TCR; conditions: in comparison to Oxaliplatin, FIG. 2A
[7] = tested on: splenic B cells; assay: relative mRNA expression of B cell differentiation and TLR activation genes in isolated splenic B cells; type: in vivo; conditions: B cells from tumor bearing mice treated (Group 3), normalized to Group 1, FIG. 6B
Procedure: Mice splenic B cells were isolated from Group 1 and Group 3 mice, described in Example 3.
Spleen was harvested from mice (n=3) and minced into small pieces in RPMI-1640 basal media. The pieces were placed on top of a 40 mesh membrane and crushed with the back of a syringe and the single cell suspension was collected onto a 50 ml tube. The single cell suspension was washed twice with PBS to remove debris by centrifuging at 2000 rpm. Splenocytes were counted using haemocytometer and 100 million splenocytes were resuspended in 1 ml of isolation buffer (2% FBS, […] in DPBS) and transferred to a 5 ml polysterene tube. The B cells were isolated from splenocytes using the EasySep Stem Cell B cell isolation kit as per manufacturers protocol. Ten million B cells were used for RNA isolation, followed by relative mRNA expression levels of genes involved in B cell differentiation and TLR activation were evaluated.

[8] = tested on: 4T1 cells; assay: ds-RNA detection by propidium iodide staining after DNase/RNase treatment; type: cell-based
Procedure: 4T1 cells were grown on a coverslip in RPMI media to 70-80% confluency. The cells were treated with Compound 1 or Oxaliplatin. Detection of ds-RNA was a modification of protocol described by Kantarjian et al. (Kantarjian et al., Blood. 1985 July; 66(1):39-46). Following treatment, the coverslips were washed in phosphate-buffered saline (PBS) and fixed in 70% ice-cold ethanol. Cells were then washed with saline and treated with 1 mg/mL of DNase in 0.25 mol/L sucrose, 5 mmol/L MgCl2, and 20 mmol/L Tris-HCL (pH 6.5) at 37° C. for 60 min. In addition, another set of cells, subjected to Compound 1 or Oxaliplatin treatment were treated with RNase at a concentration of 5 mg/mL at 37° C. for 60 minutes. After another wash in PBS, the coverslips were exposed to propidium iodide at a final concentration of 50 μg/ml, diluted in a solution containing 10 mmol/L Tris-HCl (pH 7.4) and 5 mmol/L MgCl2. Stained cells were kept at 4° C. prior to microscopic analysis using a NIKON epi-fluorescence microscope using excitation wavelengths of 480 nm and emission wavelengths of 590 nm.

[9] = tested on: LLC tumors; assay: immunohistochemical analysis of tumor sections, murine NSCLC tumor model; type: in vivo; conditions: LLC tumors in C57/BL6 mice, two cycles of treatment, FFPE sections, FIG. 1B
Procedure: Murine NSCLC tumor model was generated by subcutaneously implanting LLC cells in C57/BL6 mice. Treatment with either Compound 1 or Oxaliplatin was initiated when average tumor volume reached 100 mm^3. Following two cycles of treatment, tumors were harvested and a portion fixed in formalin. FFPE sections were generated from the fixed tumors and immunohistochemical analysis of tumor sections was carried out for both T and B-cells.

SMILES: CC(C)CCC[C@@H](C)[C@H]1CCC2C3CC=C4C[C@@H](OCCN(CC(=O)[O-])CC(=O)[O][Pt+]5[NH][C@@H]6CCCC[C@H]6[NH]5)CC[C@]4(C)C3CC[C@@]21C (stereo partly drawn) [Compound 1]
- infiltration of cytotoxic T cells (CD8+ T cells) in tumors [1]: infiltration of cytotoxic T cells
- tumor growth after implantation of 4T1 cells in treated non-tumor bearing mice ([2]; Group 1: non-tumor bearing Balb/c mice treated, similar to saline treated mice (Group 2), FIG. 3C): led to the growth of tumors
- tumor growth upon re-implantation of cancer cells (immune memory) ([2]; Group 3: animals that had previously undergone tumor regression with treatment, FIG. 3B): no tumor growth was observed upon re-implantation of cancer cells
- tumor regression in mice lacking immune cells ([3]; 4T1 tumors in B cell-deficient (Jh−/−) and SCID mice, growth similar to control mice): Tumors do not regress
- tumor regression in immunocompetent mice ([3]; 4T1 tumors in Balb/c mice): causes tumor regression only in immunocompetent mice
- B cell differentiation markers and TLR activation markers (relative mRNA) ([4]; TCM with nucleic acids intact (PES filter), 24 hours incubation, FIG. 7B): substantially increased
- relative level of B cell differentiation and TLR activation markers, nucleic acid depleted TCM ([4]; nucleic acids removed from TCM (Nylon membrane filter), FIG. 7C): substantially reduced
- IGKC mRNA levels in tumors [5]: significant increase in IGKC mRNA levels
- activation of TCR [6]: substantial activation of TCR
- IGKC mRNA levels in splenic B cells [7]: significant increase in IGKC mRNA levels
- expression of TLRs and CD80 in splenic B cells [7]: elevated expression of TLRs and CD80
- relative fluorescent intensity per field (dsRNA amount) ([8]; DNase treated samples, propidium iodide stain, FIG. 5C): enhancement of relative fluorescent intensity per field
- stability of RNA adducts ([8]; compared to Oxaliplatin): more stable RNA adducts
- B220 level by immunohistochemistry [9]: elevated levels
- IGKC level by immunohistochemistry [9]: elevated levels

From patent US20240342128A1, “IMMUNE MEMORY INDUCTION BY PLATINUM BASED COMPOUNDS” (AKAMARA THERAPEUTICS, INC., priority 2016, published 2024)
